In brackets after ≈: the same amount, converted by molar mass. Read-outs that look alike come from different tables or passages of the source. Positions of bridges follow the written chain, without caps; N, C: chain ends. Non-standard residues stand in square brackets, D forms with d. Residues, ends and D or L forms follow the SMILES beside them. *: point of attachment. Benzoyl(4-Ph) = O=C(c1ccc(-c2ccccc2)cc1)*; Octanoyl = CCCCCCCC(=O)*; Dab = NCC[C@H](N)C(=O)O
Tests used:
E. coli 94393 = assay type: cell-based, Escherichia coli
Method: (§1) We then addressed the possibility for the dilipid polymyxins to display enhanced antibacterial activity against colistin-resistant Gram-negative pathogens. […] The extended hydrophobic region of the dilipid polymyxin may provide additional hydrophobic interactions to the outer membrane of colistin-resistant organisms. Eight MDR colistin-resistant Gram-negative bacterial isolates were tested, including two E. coli isolates harboring the mcr-1 plasmid-encoded polymyxin resistance gene. We found no difference between the antibacterial activity of dilipid polymyxins and colistin against colistin-resistant Gram-negative bacteria (Table 3).
(§2) Bacterial strains were either obtained from the American Type Culture Collection (ATCC), Canadian National Intensive Care Unit (CAN-ICU) surveillance study or the Canadian Ward Surveillance (CANWARD) study. Strains from both CAN-ICU and CANWARD are isolates recovered from patients diagnosed with a presumed infectious disease that were admitted in a participating medical center across Canada. Efflux-deficient strain PAO200 (lacking MexAB-OprM efflux system) and PA0750 (lacking MexAB-OprM, MexCD-OprJ, MexEF-OprN, MexJK and MexXY efflux systems, and the outer membrane protein OpmH) were kindly gifted by Dr. Ayush Kumar (University of Manitoba).
(§3) The in vitro antibacterial activity of the compounds studied were assessed by broth microdilution susceptibility testing following CLSI guidelines. Bacterial cultures were grown overnight prior to the assay. The overnight grown cultures were diluted in saline to 0.5 McFarland turbidity, followed by 1:50 dilution in Mueller-Hinton broth (MHB) for inoculation to a final concentration of approximately 5×10^5 colony forming units/mL. Testing was performed on 96-well plates where the tested compounds were 2-fold serially diluted in MHB and incubated with equal volumes of bacterial inoculum at 37° C. for 18 h. […] Wells containing MHB with or without bacterial cells were used as positive or negative control, respectively.

E. coli 94474 = assay type: cell-based, Escherichia coli
Method: as §1, §2, §3

K. pneumoniae 113254 = assay type: cell-based, Klebsiella pneumoniae
Method: as §1, §2, §3

K. pneumoniae 113250 = assay type: cell-based, Klebsiella pneumoniae
Method: as §1, §2, §3

E. coli 107115 = assay type: cell-based, Escherichia coli
From the text: as §2, §3

E. coli ATCC 25922 = assay type: cell-based, Escherichia coli
From the text: as §2, §3

E. coli CAN-ICU 63074 = assay type: cell-based, Escherichia coli
From the text: as §2, §3

E. coli CAN-ICU 61714 = assay type: cell-based, Escherichia coli
From the text: as §2, §3

MRSA ATCC 33592 = assay type: cell-based, Staphylococcus aureus; conditions: for fold better MIC than colistin: methicillin-resistant Staphylococcus aureus
From the text: as §2, §3

S. aureus ATCC 29213 = assay type: cell-based, Staphylococcus aureus
From the text: as §2, §3

A. baumannii 92247 = assay type: cell-based, Acinetobacter baumannii
Method: as §1, §2, §3

P. aeruginosa 101243 = assay type: cell-based, Pseudomonas aeruginosa
Method: as §1, §2, §3

P. aeruginosa 114228 = assay type: cell-based, Pseudomonas aeruginosa
Method: as §1, §2, §3

P. aeruginosa 91433 = assay type: cell-based, Pseudomonas aeruginosa
Method: as §1, §2, §3

[1] = system: P. aeruginosa PA262-101856; assay type: cell-based, Pseudomonas aeruginosa
How it was run: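 Overnight cultures were standardized to 0.5 McFarland, diluted 1:50 into Mueller-Hinton broth for a final inoculum near 5×10^5 CFU/mL, then mixed with two-fold serially diluted compound. Plates were incubated 18 h at 37° C. following CLSI guidelines.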

[2] = MRSA ATCC 33592 (methicillin-resistant Staphylococcus aureus)

CCCCCCCC(=O)NCC[C@H](NC(=O)CCCCCCC)C(=O)N[C@H](C(=O)N[C@@H](CCN)C(=O)N[C@H]1CCNC(=O)[C@H]([C@@H](C)O)NC(=O)[C@H](CCN)NC(=O)[C@H](CCN)NC(=O)[C@H](CC(C)C)NC(=O)[C@@H](Cc2ccccc2)NC(=O)[C@H](CCN)NC1=O)[C@@H](C)O [Compound 2, Dioctanoic Acid (Di-C8) Polymyxin] (Octanoyl-[Dab](Octanoyl)T[Dab][Dab][Dab][dF]L[Dab][Dab]T; lactam 4-C)
MIC (E. coli 94393; 94393): 4 µg/mL (≈ 3.04 µM)
MIC (E. coli 94474; 94474): 4 µg/mL (≈ 3.04 µM)
MIC (K. pneumoniae 113254; 113254): >64 µg/mL
MIC (K. pneumoniae 113250; 113250): >64 µg/mL
MIC (E. coli 107115; 107115): 2 µg/mL (≈ 1.52 µM)
MIC (E. coli ATCC 25922; ATCC 25922): 4 µg/mL (≈ 3.04 µM)
MIC (E. coli CAN-ICU 63074; CAN-ICU 63074): 64 µg/mL (≈ 48.6 µM)
MIC (E. coli CAN-ICU 61714; CAN-ICU 61714): 32 µg/mL (≈ 24.3 µM)
MIC (MRSA ATCC 33592; ATCC 33592): 16 µg/mL (≈ 12.2 µM)
fold better MIC than colistin (MRSA ATCC 33592): 32 fold
MIC (S. aureus ATCC 29213; ATCC 29213): 16 µg/mL (≈ 12.2 µM)
MIC (A. baumannii 92247; 92247): 8 µg/mL (≈ 6.08 µM)
MIC (P. aeruginosa 101243; 101243): 32 µg/mL (≈ 24.3 µM)
MIC (P. aeruginosa 114228; 114228): 4 µg/mL (≈ 3.04 µM)
MIC (P. aeruginosa 91433; 91433): 4 µg/mL (≈ 3.04 µM)
MIC ([1]; PA262-101856): 8 µg/mL (≈ 6.08 µM)

colistin [reference compound]
MIC (E. coli 94393; E. coli 94393, colistin-resistant multidrug-resistant isolate): 4 µg/mL
MIC (E. coli 94474; E. coli 94474, colistin-resistant multidrug-resistant isolate): 16 µg/mL
MIC (K. pneumoniae 113254; K. pneumoniae 113254, colistin-resistant multidrug-resistant isolate): 256 µg/mL
MIC (K. pneumoniae 113250; K. pneumoniae 113250, colistin-resistant multidrug-resistant isolate): 256 µg/mL
MIC (E. coli 107115; E. coli 107115): 0.5 µg/mL
MIC (E. coli ATCC 25922; E. coli ATCC 25922): 0.5 µg/mL
MIC (E. coli CAN-ICU 63074; E. coli CAN-ICU 63074): ≤0.5 µg/mL
MIC (E. coli CAN-ICU 61714; E. coli CAN-ICU 61714): 0.5 µg/mL
MIC (MRSA ATCC 33592; [2]): 512 µg/mL
MIC (S. aureus ATCC 29213; S. aureus ATCC 29213): 256 µg/mL
MIC (A. baumannii 92247; A. baumannii 92247, colistin-resistant multidrug-resistant isolate): 4 µg/mL
MIC (P. aeruginosa 101243; P. aeruginosa 101243, colistin-resistant multidrug-resistant isolate): 1024 µg/mL
MIC (P. aeruginosa 114228; P. aeruginosa 114228, colistin-resistant multidrug-resistant isolate): 4 µg/mL
MIC (P. aeruginosa 91433; P. aeruginosa 91433, colistin-resistant multidrug-resistant isolate): 4 µg/mL
MIC ([1]; P. aeruginosa PA262-101856): 2 µg/mL

CC(C)C[C@@H]1NC(=O)[C@@H](Cc2ccccc2)NC(=O)[C@H](CCN)NC(=O)[C@@H](NC(=O)[C@H](CCN)NC(=O)[C@@H](NC(=O)[C@H](CCNC(=O)c2ccc(-c3ccccc3)cc2)NC(=O)c2ccc(-c3ccccc3)cc2)[C@@H](C)O)CCNC(=O)[C@H]([C@@H](C)O)NC(=O)[C@H](CCN)NC(=O)[C@H](CCN)NC1=O [Compound 5, Dibiphenyl-4-Carboxylic Acid (Di-Biphenyl) Polymyxin] ({Benzoyl(4-Ph)}-[Dab](Benzoyl(4-Ph))T[Dab][Dab][Dab][dF]L[Dab][Dab]T; lactam 4-C)
MIC (E. coli 94393; 94393): 16 µg/mL (≈ 11.2 µM)
MIC (E. coli 94474; 94474): 8 µg/mL (≈ 5.62 µM)
MIC (K. pneumoniae 113254; 113254): >64 µg/mL
MIC (K. pneumoniae 113250; 113250): >64 µg/mL
MIC (E. coli 107115; E. coli 107115): 4 µg/mL (≈ 2.81 µM)
MIC (E. coli ATCC 25922; E. coli ATCC 25922): 8 µg/mL (≈ 5.62 µM)
MIC (E. coli CAN-ICU 63074; E. coli CAN-ICU 63074): 32 µg/mL (≈ 22.5 µM)
MIC (E. coli CAN-ICU 61714; E. coli CAN-ICU 61714): 32 µg/mL (≈ 22.5 µM)
MIC (MRSA ATCC 33592; [2]): 16 µg/mL (≈ 11.2 µM)
fold better MIC than colistin (MRSA ATCC 33592): 32 fold
MIC (S. aureus ATCC 29213; S. aureus ATCC 29213): 8 µg/mL (≈ 5.62 µM)
MIC (A. baumannii 92247; 92247): 8 µg/mL (≈ 5.62 µM)
MIC (P. aeruginosa 101243; 101243): >128 µg/mL
MIC (P. aeruginosa 114228; 114228): 16 µg/mL (≈ 11.2 µM)
MIC (P. aeruginosa 91433; 91433): 8 µg/mL (≈ 5.62 µM)
MIC ([1]; P. aeruginosa PA262-101856): 8 µg/mL (≈ 5.62 µM)
